Experimental findings from US10143695B2 (priority 2016, dated 2018) are described below.

What is called IC50 is the midpoint of a concentration-inhibition curve. Low values mean greater potency, high ones weaker potency.

Common to all, as to format: cell-based
Common to all, as to settings: PBD compounds, 72 h incubation

For assay [1], the system named is BT474 cells (HER2 expressing cells). The assay is described as follows: CellTiter-Glo cell viability assay, BT474. As to the method: (§1) PBD compounds and conjugates thereof were evaluated for their antiproliferation properties in tumor cell lines in vitro using CellTiter-Glo® (Promega Corp). Cells were plated in black walled 96-well plate and allowed to adhere overnight at 37° C. in a humidified atmosphere of 5% CO2. BT474, SKBR3, NCI-N87 cells (HER2 expressing cells), JIMT1 cells (HER2 medium expression level cells) and MCF7 cells (HER2 low expressing levels cells) and were plated at a density of 5,000 cells per well. The next day the medium was replaced with 50 μL fresh medium and 50 μL of 2× stocks of PBD compounds or antibody-PBD conjugate were added to appropriate wells, mixed and incubated for 72 h. CellTiter-Glo® reagent was added to the wells at room temperature and the luminescent signal was measured after 10 min using a SpectraMax M5 plate reader (Molecular Devices). Dose response curves were generated using SoftMax Pro software. IC50 values were determined from four-parameter curve fitting.
(Cellular ATP, detected with luciferase, serves as a proxy for viable cell number.)

The subject of assay [2] is SKBR3 cells (HER2 expressing cells). Put plainly: CellTiter-Glo cell viability assay, SKBR3. As to the method:
as §1

In assay [3] the test system is NCI-N87 cells (HER2 expressing cells). The assay is described as follows: CellTiter-Glo cell viability assay, NCI-N87. As to the method: as §1
Assay [4] concerns JIMT1 cells (HER2 medium expression level cells). The assay is described as follows: CellTiter-Glo cell viability assay, JIMT1. As to the method: as §1
In assay [5] the test system is MCF7 cells (HER2 low expressing levels cells). The assay is described as follows: CellTiter-Glo cell viability assay, MCF7. The method, then:
as §1

As to `COc1cc2c(cc1OCCCC(=O)Nc1cc(C(=O)Nc3cc(C(=O)Nc4cc(C(=O)NCCCO)n(C)c4)n(C)c3)n(C)c1)N=C[C@@H]1Cc3ccccc3N1C2=O` [Compound 69], the IC50 in assay [1] (Homo sapiens, BT-474) was 4.7 nM; in assay [2] (Homo sapiens, SK-BR-3), 1.5 nM; in assay [3] (Homo sapiens, NCI-N87), 3 nM; in assay [4] (Homo sapiens, JIMT-1) it was 1.5 nM; in assay [5] (Homo sapiens, MCF7), 69 nM.
With `C=C1C[C@H]2C=Nc3cc(OCCCC(=O)Nc4cn(C)c(C(=O)Nc5cc(C(=O)Nc6cc(C(=O)n7ccc8ccc(N)cc87)n(C)c6)n(C)c5)n4)c(OC)cc3C(=O)N2C1` [Compound 13A, (S,Z)-N-(5-(5-(6-amino-1H-indole-1-carbonyl)-1-methyl-1H-pyrrol-3-ylcarbamoyl)-1-methyl-1H-pyrrol-3-yl)-4-(4-(7-methoxy-2-methylene-5-oxo-2,3,5,11a-tetrahydro-1H-benzo[e]pyrrolo[1,2-a][1,4]diazepin-8-yloxy)butanamido)-1-methyl-1H-imidazole-2-carboxamide], the IC50 was found to be 2.5 nM in assay [1] (Homo sapiens, BT-474); 0.28 nM in assay [2] (Homo sapiens, SK-BR-3); 0.73 nM in assay [3] (Homo sapiens, NCI-N87); 3.6 nM in assay [4] (Homo sapiens, JIMT-1); 4.4 nM in assay [5] (Homo sapiens, MCF7).
For the compound `C=C1C[C@H]2C=Nc3cc(OCCCC(=O)Nc4cn(C)c(C(=O)Nc5cc(C(=O)Nc6cc(C(=O)N7Cc8ccc(N)cc8C7)n(C)c6)n(C)c5)n4)c(OC)cc3C(=O)N2C1` [Compound 6A, (S,Z)-N-(5-(5-(5-aminoisoindoline-2-carbonyl)-1-methyl-1H-pyrrol-3-ylcarbamoyl)-1-methyl-1H-pyrrol-3-yl)-4-(4-(7-methoxy-2-methylene-5-oxo-2,3,5,11a-tetrahydro-1H-benzo[e]pyrrolo[1,2-a][1,4]diazepin-8-yloxy)butanamido)-1-methyl-1H-imidazole-2-carboxamide], the IC50 in assay [1] (Homo sapiens, BT-474) worked out at 5.3 nM; in assay [2] (Homo sapiens, SK-BR-3), 1.5 nM; in assay [3] (Homo sapiens, NCI-N87), 4.2 nM; in assay [4] (Homo sapiens, JIMT-1), 8.9 nM; in assay [5] (Homo sapiens, MCF7), 17.1 nM.
Turning to `C=C1C[C@H]2C=Nc3cc(OCCCC(=O)Nc4cn(C)c(C(=O)Nc5cc(C(=O)Nc6cc(C(=O)n7ccc8c(N)cccc87)n(C)c6)n(C)c5)n4)c(OC)cc3C(=O)N2C1` [Compound 11A, (S,Z)-N-(5-(5-(4-amino-1H-indole-1-carbonyl)-1-methyl-1H-pyrrol-3-ylcarbamoyl)-1-methyl-1H-pyrrol-3-yl)-4-(4-(7-methoxy-2-methylene-5-oxo-2,3,5,11a-tetrahydro-1H-benzo[e]pyrrolo[1,2-a][1,4]diazepin-8-yloxy)butanamido)-1-methyl-1H-imidazole-2-carboxamide], the IC50 in assay [1] (Homo sapiens, BT-474) is 4 nM; in assay [2] (Homo sapiens, SK-BR-3) it was 0.67 nM; in assay [3] (Homo sapiens, NCI-N87) it was 1.5 nM; in assay [4] (Homo sapiens, JIMT-1), 11.3 nM; in assay [5] (Homo sapiens, MCF7), 14.8 nM.
In the case of `C=C1C[C@H]2C=Nc3cc(OCCCC(=O)Nc4cn(C)c(C(=O)Nc5cc(C(=O)Nc6cc(C(=O)n7ccc8cc(C(=O)OC)ccc87)n(C)c6)n(C)c5)n4)c(OC)cc3C(=O)N2C1` [Compound 8A, (S,Z)-methyl 1-(4-(4-(4-(4-(7-methoxy-2-methylene-5-oxo-2,3,5,11a-tetrahydro-1H-benzo[e]pyrrolo[1,2-a][1,4]diazepin-8-yloxy)butanamido)-1-methyl-1H-imidazole-2-carboxamido)-1-methyl-1H-pyrrole-2-carboxamido)-1-methyl-1H-pyrrole-2-carbonyl)-1H-indole-5-carboxylate], the half-inhibitory concentration (IC50) in assay [1] (Homo sapiens, BT-474) came out at 0.83 nM; in assay [2] (Homo sapiens, SK-BR-3) it was 0.14 nM; in assay [3] (Homo sapiens, NCI-N87) it was 2.9 nM; in assay [4] (Homo sapiens, JIMT-1) it was 0.55 nM; in assay [5] (Homo sapiens, MCF7), 3.7 nM.
Turning to `C=C1C[C@H]2C=Nc3cc(OCCCC(=O)Nc4cn(C)c(C(=O)Nc5cc(C(=O)Nc6cc(C(=O)Nc7ccc8[nH]ccc8c7)n(C)c6)n(C)c5)n4)c(OC)cc3C(=O)N2C1` [Compound 82, (S,Z)-N-(5-(5-(1H-indol-5-ylcarbamoyl)-1-methyl-1H-pyrrol-3-ylcarbamoyl)-1-methyl-1H-pyrrol-3-yl)-4-(4-(7-methoxy-2-methylene-5-oxo-2,3,5,11a-tetrahydro-1H-benzo[e]pyrrolo[1,2-a][1,4]diazepin-8-yloxy)butanamido)-1-methyl-1H-imidazole-2-carboxamide], the IC50 in assay [1] was found to be 32 nM; in assay [2], 3.6 nM; in assay [3], 7.9 nM; in assay [4], 10.8 nM; in assay [5], 27 nM.
Turning to `C=C1C[C@H]2C=Nc3cc(OCCCC(=O)Nc4cn(C)c(C(=O)Nc5cc(C(=O)Nc6cc(C(=O)O)n(C)c6)n(C)c5)n4)c(OC)cc3C(=O)N2C1` [Compound 51, (S,Z)-4-(4-(4-(4-(7-methoxy-2-methylene-5-oxo-2,3,5,11a-tetrahydro-1H-benzo[e]pyrrolo[1,2-a][1,4]diazepin-8-yloxy)butanamido)-1-methyl-1H-imidazole-2-carboxamido)-1-methyl-1H-pyrrole-2-carboxamido)-1-methyl-1H-pyrrole-2-carboxylic acid], the IC50 in assay [1] (Homo sapiens, BT-474) amounted to 300 nM; in assay [2] (Homo sapiens, SK-BR-3) it was 260 nM; in assay [3] (Homo sapiens, NCI-N87), 300 nM; in assay [4] (Homo sapiens, JIMT-1), 300 nM; in assay [5] (Homo sapiens, MCF7), 300 nM.
For `C=C1C[C@H]2C=Nc3cc(OCCCC(=O)Nc4cn(C)c(C(=O)Nc5cc(C(=O)Nc6cc(C(=O)n7ccc8cc(CN)ccc87)n(C)c6)n(C)c5)n4)c(OC)cc3C(=O)N2C1` [Compound 83, (S,Z)-N-(5-(5-(5-(aminomethyl)-1H-indole-1-carbonyl)-1-methyl-1H-pyrrol-3-ylcarbamoyl)-1-methyl-1H-pyrrol-3-yl)-4-(4-(7-methoxy-2-methylene-5-oxo-2,3,5,11a-tetrahydro-1H-benzo[e]pyrrolo[1,2-a][1,4]diazepin-8-yloxy)butanamido)-1-methyl-1H-imidazole-2-carboxamide], the half-inhibitory concentration (IC50) in assay [1] (Homo sapiens, BT-474) was 2.5 nM; in assay [2] (Homo sapiens, SK-BR-3), 0.18 nM; in assay [3] (Homo sapiens, NCI-N87) it was 0.81 nM; in assay [4] (Homo sapiens, JIMT-1), 1.2 nM; in assay [5] (Homo sapiens, MCF7), 2.4 nM.
For the compound `C=C1C[C@H]2C=Nc3cc(OCCCC(=O)Nc4cn(C)c(C(=O)Nc5cc(C(=O)Nc6cc(C(=O)n7ccc8cc(OC)ccc87)n(C)c6)n(C)c5)n4)c(OC)cc3C(=O)N2C1` [Compound 7A], the half-maximal inhibitory concentration (IC50) in assay [1] (Homo sapiens, BT-474) amounted to 0.6 nM; in assay [2] (Homo sapiens, SK-BR-3), 0.15 nM; in assay [3] (Homo sapiens, NCI-N87), 0.3 nM; in assay [4] (Homo sapiens, JIMT-1), 1.1 nM; in assay [5] (Homo sapiens, MCF7) it was 2.7 nM.
On to `C=C1C[C@@H]2C=Nc3cc(OCCCC(=O)Nc4cc(C(=O)Nc5cc(C(=O)Nc6cc(C(=O)NCCCO)n(C)c6)n(C)c5)n(C)c4)c(OC)cc3C(=O)N2C1` [Compound 55, (R,Z)-N-(3-hydroxypropyl)-4-(4-(4-(4-(7-methoxy-2-methylene-5-oxo-2,3,5,11a-tetrahydro-1H-benzo[e]pyrrolo[1,2-a][1,4]diazepin-8-yloxy)butanamido)-1-methyl-1H-pyrrole-2-carboxamido)-1-methyl-1H-pyrrole-2-carboxamido)-1-methyl-1H-pyrrole-2-carboxamide], for which the half-maximal inhibitory concentration (IC50) in assay [1] (Homo sapiens, BT-474) came out at 7.5 nM; in assay [2] (Homo sapiens, SK-BR-3), 2.5 nM; in assay [3] (Homo sapiens, NCI-N87), 5 nM; in assay [4] (Homo sapiens, JIMT-1), 2 nM; in assay [5] (Homo sapiens, MCF7) it was 47 nM.
Taken in the same sequence, the figures for `C=C1C[C@H]2C=Nc3cc(OCCCC(=O)Nc4cn(C)c(C(=O)Nc5cc(C(=O)NCc6ccc(N)cc6)n(C)c5)n4)c(OC)cc3C(=O)N2C1` [Compound 3A, (S,Z)-N-(5-(4-aminobenzylcarbamoyl)-1-methyl-1H-pyrrol-3-yl)-4-(4-(7-methoxy-2-methylene-5-oxo-2,3,5,11a-tetrahydro-1H-benzo[e]pyrrolo[1,2-a][1,4]diazepin-8-yloxy)butanamido)-1-methyl-1H-imidazole-2-carboxamide] were 69 nM, 9 nM, 14 nM, 91 nM and 214 nM.
On to `C=C1C[C@H]2C=Nc3cc(OCCCC(=O)Nc4cn(C)c(C(=O)Nc5cc(C(=O)Nc6cc(C(=O)NCc7ccc(N)cc7)n(C)c6)n(C)c5)n4)c(OC)cc3C(=O)N2C1` [Compound 4A, (S,Z)-N-(5-(5-(4-aminobenzylcarbamoyl)-1-methyl-1H-pyrrol-3-ylcarbamoyl)-1-methyl-1H-pyrrol-3-yl)-4-(4-(7-methoxy-2-methylene-5-oxo-2,3,5,11a-tetrahydro-1H-benzo[e]pyrrolo[1,2-a][1,4]diazepin-8-yloxy)butanamido)-1-methyl-1H-imidazole-2-carboxamide], for which the half-maximal inhibitory concentration (IC50) in assay [1] (Homo sapiens, BT-474) came out at 26.8 nM; in assay [2] (Homo sapiens, SK-BR-3), 9.4 nM; in assay [3] (Homo sapiens, NCI-N87), 24.1 nM; in assay [4] (Homo sapiens, JIMT-1) it was 11.4 nM; in assay [5] (Homo sapiens, MCF7) it was 1000 nM.
Taken in the same sequence, the figures for `C=C1C[C@H]2C=Nc3cc(OCCCC(=O)Nc4cn(C)c(C(=O)Nc5cc(C(=O)Nc6cc(C(=O)N7CCc8cc(N)ccc87)n(C)c6)n(C)c5)n4)c(OC)cc3C(=O)N2C1` [Compound 77, (S,Z)-N-(5-(5-(5-aminoindoline-1-carbonyl)-1-methyl-1H-pyrrol-3-ylcarbamoyl)-1-methyl-1H-pyrrol-3-yl)-4-(4-(7-methoxy-2-methylene-5-oxo-2,3,5,11a-tetrahydro-1H-benzo[e]pyrrolo[1,2-a][1,4]diazepin-8-yloxy)butanamido)-1-methyl-1H-imidazole-2-carboxamide] were 37.1 nM, 1.4 nM, 6.4 nM, 8.6 nM and 14.9 nM.
